# Results as given in patent publication US4891432A, “Phenoxy imidazole compound” (Yamanouchi Pharmaceutical Co., Ltd., priority 1986, dated 1990).
# Like-named read-outs stand apart in the source and are kept apart here.
# How the values were obtained:
# [1] = test system: mouse leukemia L1210 cells; test: Effectiveness against mouse leukemia L1210 cells (in vitro test), cytotoxicity by trypan blue dye exclusion; format: cell-based; settings: Mus musculus, read-out: IC50 (mean dose producing 50%-killing of tumor cells)
# Procedure: Effectiveness against mouse leukemia L1210 cells (in vitro test)
# A suspension of cells in culture medium was transferred into wells in a microplate in an amount of 1×10^5 L1210-cells/well. Test sample diluted with a culture medium was added to the suspension in each well, and the mixture was incubated on the medium at 37° C. for 3 days in an atmosphere of air containing 5% carbon dioxide.
# Thereafter, the incubated cells were recovered from the microplate and the number of live cells was counted by the dye exclusion test using a 0.5% solution of trypan blue and by using a hemocytometer.
# Ehrlich solid tumor [2] = test: Test 2: Anti-tumor test against Ehrlich solid tumor; format: in vivo, ddY/SLC mice; settings: Mus musculus, Ehrlich, ip, 504 h, read-out: Growth Inhibition Rate; for inhibition in vivo at 100 mg/kg / inhibition in vivo at 50 mg/kg: i.p., days 1 through 9, tumor weight day 21
# Procedure: Anti-tumor test against Ehrlich solid tumor
# Ehrlich tumor cells, 2×10^6, on Day 7 after intraperitoneal transplantation to ddY/SLC mice, were subcutaneously transplanted in the left abdomen of ddY/SLC mice (5week age, male)--10 to a group. The active component was intraperitoneally administered in a definite dose 24 hours after the transplantation. (administration: once per one day; 1 through 9 days)
# (§1) Growth inhibition rate (%)=(C-T)/C×100
# T: mean tumor weight in the active component-administered group
# c: mean tumor weight in the control group
# Ehrlich solid tumor [3] = test: Test 5: Antitumor test against Ehrlich solid tumor; format: in vivo, ddY/SLC mice; settings: intraperitoneal (1 to 9 days), day 21
# Procedure: Antitumor test against Ehrlich solid tumor
# Ehrlich tumor cells, 3×10^6, on Day 6 after intraperitoneal transplantation to ddY/SLC mice, were subcutaneously transplanted in the left abdomen of ddY/SLC mice (5 week age, male)--10 mice to a group (37 mice for the control group). The active component was intraperitoneally administered in a definite dose 24 hours after the transplantation, according to the scheduled shown in Table 4. The tumor growth inhibition was assessed by measuring the weight of each tumor on the 21th day after transplantation, and determining the tumor growth inhibition rate of the active component-administered group to the control group, according to the following equation.
# as §1
# (§2) T: mean tumor weight in the active-component-administered group
# (§3) C: mean tumor weight on the control group
# [4] = test system: mouse mammalian MM-46 tumor; test: Test 3: Test against mouse mammalian MM-46 tumor; format: in vivo, C3H/He/SLC mice
# Procedure: Test against mouse mammalian MM-46 tumor
# MM-46 tumor cells, 1×10^6, on day 6 after intraperitonal transplantation to C3 H/He/SLC mice, were intraperitoneally transplanted to C3H/He/SlC mice (6 week age, male)--10 mice to a group. The active component was orally administered in a definite dose 24 hours after the transplantation according to the schedule shown in Table 2. The tumor growth inhibition was evaluated as the percentage of the median survival day of the administered group versus that of the control group, according to the following equation.
# T: median survival day of the administered group
# C: median survival day of the control group
# mouse M5076 solid tumor = test: Test 4: Anti-tumor test against mouse M5076 solid tumor; format: in vivo, BDF1/SLC mice; settings: p.o. (1-9 days), day 14
# Procedure: Anti-tumor test against mouse M5076 solid tumor
# M5076 Tumor cells, 1×10^6, on day 14 after intraperitoneal transplantation to C57BL16/cRJ mice, were subcutaneously transplanted to the left abdomen of BDF1/SLC mice (8 week age, male)--10 mice to a group (20 mice for the control group). The active component was orally administered in a definite dose 24 hours after the transplantation according to the schedule shown in Table 3. The tumor growth inhibition was assessed by measuring the weight of each tumor on days 14 after the transplantation, and determining the tumor growth inhibition rate of the active component-administered group to the control group, according to the following equation.
# as §1, §2, §3
# [5] = Toxicity test (acute toxicity); format: in vivo; settings: mouse, in vivo, male ddY mice
# Procedure: (§4) The active component (the Compound of Example 45) was orally administered to ddY mice (mean body weight of 30 g, male). […] Accordingly, the acute toxicity of the Compound is greater than 1,600 mg/kg (oral administration).
# (§5) Accordingly, the acute toxicity of the Compound in the case of intraperitoneal administration is greater than 800 mg/kg.
# ddY mice = test: Toxicity test (acute toxicity); format: in vivo; settings: intraperitoneal, up to a dose of 800 mg/kg
# Procedure: as §4, §5
# [6] = 72 h, L1210 cells, 3 days, 37° C.
compound,measurement,setting,value
"O=c1[nH]cc(F)c(=O)[nH]1 [5-Fluorouracil, reference compound]",IC50,"[1]; L1210, 72 h",0.41 µM
same,inhibition in vivo at 25 mg/kg,Ehrlich solid tumor [2],61%
same,Growth Inhibition Rate,Ehrlich solid tumor [3]; 12.5 mg/kg,36.4%
same,Weight of Tumor,Ehrlich solid tumor [3]; 12.5 mg/kg,2.55 ± 1.21 g
same,Growth Inhibition Rate,Ehrlich solid tumor [3]; 25 mg/kg,45.6%
same,Weight of Tumor,Ehrlich solid tumor [3]; 25 mg/kg,2.18 ± 0.96 g
CC(C)(CCCCOc1ccc(OCCCCCSc2nc3cccnc3[nH]2)cc1)C(N)=O [Example 44],IC50,[1]; [6],3.7 µM
same,inhibition in vivo at 100 mg/kg,Ehrlich solid tumor [2],46.1%
"CC(C)(CCCCOc1ccc(OCCCCCn2ccnc2)cc1)C(=O)O [Example 45, 6-[p-[5-(1-imidazolyl)pentyloxy]phenoxy]-2,2-dimethylhexanoic acid]",IC50,[1]; [6],42.5 µM
same,Median Survival Day,"[4]; 100 mg/kg, p.o. (1-6 days)",8.0 days
same,No. of 20-day Survivors,"[4]; 100 mg/kg, p.o. (1-6 days)",0/10
same,T/C (median survival),"[4]; 100 mg/kg, p.o. (1-6 days)",114.3%
same,Median Survival Day,"[4]; 200 mg/kg, p.o. (1-6 days)",8.0 days
same,No. of 20-day Survivors,"[4]; 200 mg/kg, p.o. (1-6 days)",0/10
same,T/C (median survival),"[4]; 200 mg/kg, p.o. (1-6 days)",114.3%
same,Median Survival Day,"[4]; 400 mg/kg, p.o. (1-6 days)",8.0 days
same,No. of 20-day Survivors,"[4]; 400 mg/kg, p.o. (1-6 days)",0/10
same,T/C (median survival),"[4]; 400 mg/kg, p.o. (1-6 days)",114.3%
same,Median Survival Day,"[4]; 800 mg/kg, p.o. (1-8 days)",10.0 days
same,No. of 20-day Survivors,"[4]; 800 mg/kg, p.o. (1-8 days)",0/10
same,T/C (median survival),"[4]; 800 mg/kg, p.o. (1-8 days)",142.9%
same,Growth Inhibition Rate,mouse M5076 solid tumor; 100 mg/kg,13.1%
same,Weight of Tumor,mouse M5076 solid tumor; 100 mg/kg,0.53 ± 0.09 g
same,Growth Inhibition Rate,mouse M5076 solid tumor; 200 mg/kg,19.7%
same,Weight of Tumor,mouse M5076 solid tumor; 200 mg/kg,0.49 ± 0.14 g
same,Growth Inhibition Rate,mouse M5076 solid tumor; 400 mg/kg,11.5%
same,Weight of Tumor,mouse M5076 solid tumor; 400 mg/kg,0.54 ± 0.12 g
same,Growth Inhibition Rate,mouse M5076 solid tumor; 800 mg/kg,23.0%
same,Weight of Tumor,mouse M5076 solid tumor; 800 mg/kg,0.47 ± 0.09 g
same,Growth Inhibition Rate,Ehrlich solid tumor [3]; 50 mg/kg,29.9%
same,Weight of Tumor,Ehrlich solid tumor [3]; 50 mg/kg,2.81 ± 1.55 g
same,Growth Inhibition Rate,Ehrlich solid tumor [3]; 100 mg/kg,49.1%
same,Weight of Tumor,Ehrlich solid tumor [3]; 100 mg/kg,2.04 ± 1.26 g
same,Growth Inhibition Rate,Ehrlich solid tumor [3]; 200 mg/kg,63.6%
same,Weight of Tumor,Ehrlich solid tumor [3]; 200 mg/kg,1.46 ± 0.50 g
same,Growth Inhibition Rate,Ehrlich solid tumor [3]; 400 mg/kg,57.6%
same,Weight of Tumor,Ehrlich solid tumor [3]; 400 mg/kg,1.70 ± 0.60 g
same,LD50,"[5]; ip, intraperitoneal administration",> 800 mg/kg
same,LD50,[5]; oral administration,> 1600 mg/kg
same,death,ddY mice,no example of death was noted
"CCOC(=O)C(C)(C)CCCCOc1ccc(OCCCCCn2cncn2)cc1 [Example 48, ethyl 6-[p-[5-(1,2,4-triazol-1-yl)pentyloxy]phenoxy]-2,2-dimethylhexanoate]",IC50,[1]; [6],5.5 µM
same,inhibition in vivo at 100 mg/kg,Ehrlich solid tumor [2],46.3%
CCCCCCCCCCNC(=O)C(C)(C)CCCCOc1ccc(OCCCCCn2ccnc2)cc1 [Example 51],IC50,[1]; [6],0.6 µM
same,inhibition in vivo at 50 mg/kg,Ehrlich solid tumor [2],42.5%
CC(C)(CCCCOc1ccc(OCCCCCn2ccnc2)cc1)C(=O)NC1CCCCC1 [Example 52],IC50,[1]; [6],3.6 µM
same,inhibition in vivo at 100 mg/kg,Ehrlich solid tumor [2],55.7%
CC(C)(CCCCOc1ccc(OCCCCCn2ccnc2)cc1)C(=O)Nc1ccccc1 [Example 53],IC50,[1]; [6],4.3 µM
same,inhibition in vivo at 100 mg/kg,Ehrlich solid tumor [2],49.3%
"CC(C)(C#N)CCCCOc1ccc(OCCCCCn2ccnc2)cc1 [Example 55, 6-[p-[5-(1-imidazolyl)pentyloxy]phenoxy]-2,2-dimethylhexane-nitrile]",IC50,[1]; [6],3.8 µM
same,inhibition in vivo at 50 mg/kg,Ehrlich solid tumor [2],63.1%
NC(=O)CCCCCOc1ccc(OCCCCCn2ccnc2)cc1 [Example 56],IC50,[1]; [6],13.8 µM
same,inhibition in vivo at 100 mg/kg,Ehrlich solid tumor [2],30.2%
"O=c1[nH]c(=O)n(C2CCCO2)cc1F (centres unmarked) [Tetrahydrofuryl-5-fluorouracil, reference compound]",Median Survival Day,"[4]; 100 mg/kg, p.o. (1-6 days)",6.0 days
same,No. of 20-day Survivors,"[4]; 100 mg/kg, p.o. (1-6 days)",0/10
same,T/C (median survival),"[4]; 100 mg/kg, p.o. (1-6 days)",85.7%
same,Median Survival Day,"[4]; 200 mg/kg, p.o. (1-6 days)",7.0 days
same,No. of 20-day Survivors,"[4]; 200 mg/kg, p.o. (1-6 days)",0/10
same,T/C (median survival),"[4]; 200 mg/kg, p.o. (1-6 days)",100%
same,Growth Inhibition Rate,mouse M5076 solid tumor; 100 mg/kg,14.8%
same,Weight of Tumor,mouse M5076 solid tumor; 100 mg/kg,0.52 ± 0.19 g
same,Growth Inhibition Rate,mouse M5076 solid tumor; 200 mg/kg,39.3%
same,Weight of Tumor,mouse M5076 solid tumor; 200 mg/kg,0.37 ± 0.08 g
